According to publication PMC7672456 (Nucleic Acids Research, 2020):

Legend:
PfLysRS [1] = biological target: T1, PfLysRS (Plasmodium falciparum, UniProt Q8IDJ8); assay: Thermal shift assay; format: binding; conditions: for increase of Tm of PfLysRS: 200 μM compound
PfLysRS [2] = biological target: T1, PfLysRS; assay: Surface plasmon resonance; format: binding
HsLysRS [3] = biological target: T2, HsLysRS (Homo sapiens, UniProt Q15046); assay: ATP hydrolysis assay; format: biochemical
HsLysRS [4] = biological target: T2, HsLysRS; assay: Thermal shift assay; format: binding; conditions: in the presence or absence of L-lysine
P. falciparum strain 3D7 = assay: In vitro Plasmodium growth assay; format: cell-based, Plasmodium falciparum
[5] = tested on: mammalian protein translation system; assay: Mammalian protein translation assay in rabbit reticulocyte lysate; format: biochemical; conditions: firefly luciferase mRNA
[6] = phase I, patients, oral; cited from earlier work
PfLysRS [7] = biological target: T1, PfLysRS; conditions: cited from earlier work

T2 sequence (Q15046 70-581): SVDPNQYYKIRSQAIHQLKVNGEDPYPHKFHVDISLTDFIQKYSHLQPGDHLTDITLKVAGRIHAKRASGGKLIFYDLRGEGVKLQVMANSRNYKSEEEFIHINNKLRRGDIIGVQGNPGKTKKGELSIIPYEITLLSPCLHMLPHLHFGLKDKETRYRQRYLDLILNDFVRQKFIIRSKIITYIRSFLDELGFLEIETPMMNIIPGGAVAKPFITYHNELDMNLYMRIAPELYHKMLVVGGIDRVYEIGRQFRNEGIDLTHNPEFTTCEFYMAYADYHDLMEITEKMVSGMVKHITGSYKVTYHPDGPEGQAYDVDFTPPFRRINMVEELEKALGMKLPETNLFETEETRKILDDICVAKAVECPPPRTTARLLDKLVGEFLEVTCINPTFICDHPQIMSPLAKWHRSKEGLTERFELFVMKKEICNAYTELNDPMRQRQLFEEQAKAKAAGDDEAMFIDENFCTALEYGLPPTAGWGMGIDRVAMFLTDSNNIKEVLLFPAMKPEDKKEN
T1 sequence (Q8IDJ8 77-583 limits assumed): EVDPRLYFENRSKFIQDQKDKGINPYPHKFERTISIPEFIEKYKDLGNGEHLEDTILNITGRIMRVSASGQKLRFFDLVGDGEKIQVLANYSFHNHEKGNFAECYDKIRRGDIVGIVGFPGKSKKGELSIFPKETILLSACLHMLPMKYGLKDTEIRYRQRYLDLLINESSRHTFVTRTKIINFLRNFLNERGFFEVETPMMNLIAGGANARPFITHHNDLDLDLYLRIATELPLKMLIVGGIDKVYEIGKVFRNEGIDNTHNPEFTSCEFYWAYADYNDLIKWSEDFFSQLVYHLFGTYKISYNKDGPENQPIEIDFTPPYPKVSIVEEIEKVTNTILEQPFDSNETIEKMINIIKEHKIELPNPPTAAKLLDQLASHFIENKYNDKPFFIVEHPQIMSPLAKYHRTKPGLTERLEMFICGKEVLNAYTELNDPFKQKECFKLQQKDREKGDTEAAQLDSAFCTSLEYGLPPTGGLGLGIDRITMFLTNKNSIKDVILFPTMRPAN

| SMILES | Kd (PfLysRS [1]) [µM] | increase of Tm of PfLysRS (PfLysRS [1]; in the presence of L-lysine (500 μM)) [°C] | increase of Tm of PfLysRS (PfLysRS [1]; without L-lysine, 10 μM PfLysRS) [°C] | Kd (PfLysRS [2]) [µM] | koff (PfLysRS [2]) [s⁻¹] | kon (PfLysRS [2]) [M⁻¹ s⁻¹] | IC50 (HsLysRS [3]) [µM] | fold less potent on HsLysRS than on PfLysRS (IC50 ratio) (HsLysRS [3]; ATP hydrolysis IC50 HsLysRS versus PfLysRS) | thermal stability of HsLysRS (HsLysRS [4]) | IC50 (P. falciparum strain 3D7; Plasmodium falciparum, 3D7, 72 h) [µM] | parasite growth and morphology (P. falciparum strain 3D7; synchronized ring stage, 25 μM, monitored over 72 h, Giemsa smears) | IC50 [5] [µM] | half-life range [6] [h] | median half-life [6] [h] | IC50 (PfLysRS [7]) [µM] | fold lower IC50 on PfLysRS compared to other eukaryotic LysRSs including human LysRS (PfLysRS [7]) [fold] |
| --- | --- | --- | --- | --- | --- | --- | --- | --- | --- | --- | --- | --- | --- | --- | --- | --- |
| COc1cc(N2CCC(N3CCN(C)CC3)CC2)ccc1Nc1ncnc(Nc2ccccc2S(=O)(=O)C(C)C)n1 [ASP3026, N-{2-Methoxy-4-[4-(4-methylpiperazin-1-yl)piperidin-1-yl]phenyl}-N'-[2-(propane-2-sulfonyl)phenyl]-1,3,5-triazine-2,4-diamine] | ~0.238 | 8.0 | 10.0 | 0.239 | 0.0063 | 26400 | > 250 | over 380 fold | could not increase the thermal stability | 5.61 ± 0.26 | stopped growing completely until they eventually died | > 1000 | 22 to 85 | 35 |  |  |
| C[C@H]1CCC[C@H](C[C@H]2Cc3cc(O)cc(O)c3C(=O)O2)O1 [cladosporin] |  |  |  |  |  |  |  |  |  |  |  |  |  |  | ~0.004 | 1000 |
